Data taken from paper PMC3558805 (British Journal of Clinical Pharmacology, 2012).
≈ marks a conversion by molar mass, not a printed value. Entries after “also recorded” stand apart in the source; their conditions may differ.

Experiments:
[1] = Single rising dose plasma PK, OZ439 oral dispersion, fasted healthy subjects; format: in vivo, human; conditions: for Tmax / AUC(0-inf) / AUC(0-t) / Cmax: human, plasma, po
Plasmodium berghei = conditions: single oral dose of 20 mg kg^−1; already known; cited from earlier work
[2] = Plasma pharmacokinetics of OZ439, summary over single and multiple dose parts; format: in vivo, human
[3] = Food effect on plasma PK, 800 mg OZ439 oral dispersion, fed vs fasted; format: in vivo; conditions: human; for AUC(0-t): single dose 800 mg OZ439 oral dispersion, geometric mean (CV%)
[4] = Urinary excretion of OZ439 and metabolites; format: in vivo, human; conditions: single rising dose, 0-48 h urine, data not shown
[5] = Multiple rising dose plasma PK, OZ439 oral dispersion once daily for 3 days; format: in vivo, human; conditions: for Rac / AUC(0-t) / Cmax: geometric mean (CV%); for AUC(0-t) / Cmax / Tmax: po; for AUC(0-t): AUC(0,24 h)
[6] = Safety assessment in healthy subjects; format: in vivo, human
[7] = tested on: P. falciparum laboratory strain NF54; experiment: Ex vivo bioactivity assay of serum samples; format: cell-based; conditions: Plasmodium falciparum
[8] = 14 day toxicology or CNS safety pharmacology studies, preclinical; cited from earlier work
[9] = Single rising dose plasma PK, OZ439 capsule, fasted healthy subjects; format: in vivo, human
CYP3A4 = CYP3A4 induction assay; format: in vivo, human; conditions: up to 3 days dosing
[10] = dogs, preclinical; cited from earlier work
[11] = human, plasma, 200 mg, 200 mg once a day for 3 days, oral dispersion, day 1
[12] = human, plasma, 200 mg, 200 mg once a day for 3 days, oral dispersion, day 3
[13] = human, plasma, 400 mg, 400 mg once a day for 3 days, oral dispersion, day 1
[14] = human, plasma, 400 mg, 400 mg once a day for 3 days, oral dispersion, day 3
[15] = human, plasma, 800 mg, 800 mg once a day for 3 days, oral dispersion, day 1
[16] = human, plasma, 800 mg, 800 mg once a day for 3 days, oral dispersion, day 3
[17] = 800 mg oral dispersion, fasted regimen, possibly treatment related
[18] = single dose 1600 mg oral dispersion, related to study drug
[19] = both, human, plasma, oral, 50 mg
[20] = both, human, plasma, oral, 100 mg
[21] = both, human, plasma, oral, 200 mg

In the case of `c1cc([C@H]2CC[C@]3(CC2)OO[C@]2(O3)C3CC4CC(C3)CC2C4)ccc1OCCN1CCOCC1` [OZ439], the “time mean plasma concentrations were above 10 ng ml^−1” value ([1]; 400 mg oral dispersion, fasted) is reported as 36 h, the “time mean plasma concentrations were above 10 ng ml^−1” value ([1]; 800 mg oral dispersion, fasted) is reported as 60 h and the “AUC(0,t), oral dispersion compared with capsule” value ([1]; 800 mg, fasted) is reported as 3.2 fold. For the same molecule, the “Cmax, oral dispersion compared with capsule” value ([1]; 800 mg, fasted) was 2.9 fold, the “time mean plasma concentrations were above 10 ng ml^−1” value ([1]; 1600 mg oral dispersion, fasted) was 96 h and the Tmax [1] was 3 to 5 h. The AUC(0-inf) ([1]; 400 mg) was 5540 ng·h/mL, the AUC(0-t) ([1]; 400 mg) was 5430 ng·h/mL and the Cmax ([1]; 400 mg) was 566 ng/mL. The Tmax ([1]; 400 mg) was 3 h, the AUC(0-inf) ([1]; 800 mg) was 9790 ng·h/mL and the AUC(0-t) ([1]; 800 mg) was 9630 ng·h/mL. For the same molecule, the Cmax ([1]; 800 mg) was 917 ng/mL, the Tmax ([1]; 800 mg) was 3 h and the AUC(0-t) ([1]; 1600 mg) was 17500 ng·h/mL. The Cmax ([1]; 1600 mg) was 1340 ng/mL, the Tmax ([1]; 1600 mg) was 5 h and the “inter-subject variability of AUC(0,∞)” value ([1]; oral dispersion) was 57.2%. The “inter-subject variability of Cmax” value ([1]; oral dispersion) was 41.8%, the “intra-subject variability of AUC(0,∞)” value ([1]; oral dispersion) was 23.2% and the “intra-subject variability of Cmax” value ([1]; oral dispersion) was 14.0%. For the same molecule, the “cure of Plasmodium berghei-infected mice” value (Plasmodium berghei) was “completely cures”, the Tmax ([2]; human, plasma, oral) was ~3 h and the “time plasma concentrations exceed the estimated minimum effective concentration” value ([2]; well tolerated dose levels) was ~96 h. The concentration at 96 h [3] was > 10 ng/mL, the AUC(0-t) ([3]; fasted) was 7590 ng·h/mL and the AUC(0-t) ([3]; fed) was 23100 ng·h/mL. The urinary concentrations [4] was “low or below the limit of quantitation”, the Rac ([5]; 400 mg once a day for 3 days, oral dispersion, day 3) was 1.76 (29.9) and the Rac ([5]; 800 mg once a day for 3 days, oral dispersion, day 3) was 1.43 (26.0). The attainment of steady-state ([5]; day 3 of dosing) was “steady-state was not achieved; also recorded: had not been attained”, the concentration at 96 h ([5]; human, plasma, oral, 400 mg) was ~17 ng/mL and the AUC(0-t) [5, 11] was 2640 ng·h/mL. The AUC(0-t) [5, 12] was 3060 ng·h/mL, the Cmax [5, 11] was 314 ng/mL and the Cmax [5, 12] was 342 ng/mL. For the same molecule, the Tmax ([5]; human, plasma, 200 mg, tmax, 200 mg once a day for 3 days, oral dispersion, day 1, median (range)) was 3.5 h, the Tmax ([5]; human, plasma, 200 mg, tmax, 200 mg once a day for 3 days, oral dispersion, day 3, median (range)) was 3 h and the AUC(0-t) [5, 13] was 4560 ng·h/mL. The AUC(0-t) [5, 14] was 7990 ng·h/mL, the Cmax [5, 13] was 505 ng/mL and the Cmax [5, 14] was 764 ng/mL. It also gave a Tmax ([5]; human, plasma, 400 mg, tmax, 400 mg once a day for 3 days, oral dispersion, day 1, median (range)) of 3.5 h, a Tmax ([5]; human, plasma, 400 mg, tmax, 400 mg once a day for 3 days, oral dispersion, day 3, median (range)) of 3 h and an AUC(0-t) [5, 15] of 9570 ng·h/mL. For the same molecule, the AUC(0-t) [5, 16] was 13700 ng·h/mL, the Cmax [5, 15] was 1130 ng/mL and the Cmax [5, 16] was 1390 ng/mL. The Tmax ([5]; human, plasma, 800 mg, median tmax, 200, 400 or 800 mg once daily for 3 days, oral dispersion) was 3 h, the Tmax ([5]; human, plasma, 800 mg, tmax, 800 mg once a day for 3 days, oral dispersion, day 1, median (range)) was 3 h and the Tmax ([5]; human, plasma, 800 mg, tmax, 800 mg once a day for 3 days, oral dispersion, day 3, median (range)) was 3 h. The “inter-subject variability of AUC(0,24 h)” value ([5]; multiple dose, oral dispersion) was 54.1%, the “inter-subject variability of Cmax” value ([5]; multiple dose, oral dispersion) was 48.9% and the “subjects experiencing AEs” value ([6]; 200 mg once daily for 3 days) was “Three of six”. The “subjects experiencing AEs” value ([6]; 400 mg once daily for 3 days) was 1/6, the “subjects experiencing AEs” value ([6]; 800 mg once daily for 3 days) was 4/6 and the headache [6, 17] was 1/12. The nausea [6, 17] was 1/12, the oropharyngeal pain [6, 17] was 1/12 and the “subjects experiencing AEs” value ([6]; 800 mg oral dispersion, fed regimen) was “Three of 12”. For the same molecule, the headache ([6]; 800 mg oral dispersion, fed regimen, possibly treatment related) was 2/12, the safety and tolerability ([6]; 200, 400 and 800 mg once daily for 3 days) was “safe and well tolerated” and the “effect on QTc interval” value ([6]; healthy subjects) was “no significant effect”. The “overall incidence of AEs” value ([6]; other single rising dose groups, out of 6–8) was 0–2 subjects, the safety and tolerability ([6]; single dose 800 mg oral dispersion, fasted or fed) was “safe and well tolerated” and the “overall incidence of AEs” value ([6]; single dose 1600 mg oral dispersion) was 5/6. For the same molecule, the diarrhoea [6, 18] was 3/6, the gastrointestinal hypermotility [6, 18] was 2/6 and the nausea [6, 18] was 3/6. The “effect on audiometry/BAEP” value ([6]; single dose and repeat dose parts) was “no clinically significant changes; also recorded: No effect”, the safety and tolerability ([6]; single doses 50 mg up to 1200 mg capsule, oral dispersion up to 1600 mg) was “safe and well tolerated” and the IC50 ([7]; NF54, ex vivo serum samples, average value) was 1.5 ng/mL (≈ 3.19 nM). The IC50 ([7]; NF54, ex vivo serum samples, general range) was 1.3 to 2 ng/mL (≈ 2.77 to 4.26 nM), the IC50 ([7]; NF54, pre-dose serum spiked with a known amount of OZ439) was 1.7 ng/mL (≈ 3.62 nM) and the “central nervous system toxicity” value [8] was “no preclinical evidence of central nervous system toxicity”. It also gave an AUC(0-t) [9, 19] of 102 ng·h/mL, a Cmax [9, 19] of 17.4 ng/mL and a Tmax [9, 19] of 3 h. For the same molecule, the AUC(0-t) [9, 20] was 249 ng·h/mL, the Cmax [9, 20] was 34.2 ng/mL and the Tmax [9, 20] was 5 h. For the same molecule, the AUC(0-t) [9, 21] was 890 ng·h/mL, the Cmax [9, 21] was 102 ng/mL and the Tmax [9, 21] was 3.5 h. For the same molecule, the Cmax ([9]; both, human, plasma, oral, 400 mg) was 135 ng/mL, the “inter-subject variability of AUC(0,t)” value ([9]; capsule) was 71.5% and the “inter-subject variability of Cmax” value ([9]; capsule) was 79.5%. The “intra-subject variability of AUC(0,t)” value ([9]; capsule) was 92.6%, the “intra-subject variability of Cmax” value ([9]; capsule) was 77.4% and the Tmax ([9]; human, plasma, oral) was 3 to 5 h. The AUC(0-t) ([9]; human, plasma, oral, 400 mg) was 1130 ng·h/mL, the Tmax ([9]; human, plasma, oral, 400 mg) was 3 h and the AUC(0-inf) ([9]; human, plasma, oral, 800 mg) was 4690 ng·h/mL. The AUC(0-t) ([9]; human, plasma, oral, 800 mg) was 3010 ng·h/mL, the Cmax ([9]; human, plasma, oral, 800 mg) was 315 ng/mL and the Tmax ([9]; human, plasma, oral, 800 mg) was 3 h. For the same molecule, the concentration at 24 h ([9]; human, plasma, oral, 800 mg) was > 20 ng/mL, the AUC(0-inf) ([9]; human, plasma, oral, 1200 mg) was 9130 ng·h/mL and the AUC(0-t) ([9]; human, plasma, oral, 1200 mg) was 6530 ng·h/mL. For the same molecule, the Cmax ([9]; human, plasma, oral, 1200 mg) was 701 ng/mL, the Tmax ([9]; human, plasma, oral, 1200 mg) was 3 h and the “induction of CYP3A4” value (CYP3A4) was “did not induce”. The “no observed adverse effect level (NOAEL)” value [10] was 20 mg/kg/day.
